Measured values from patent publication US20210330611A1, “THERAPY FOR NEUROLOGICAL DISEASES/DISORDERS” (priority 2020, published 2021).
Where a name gives a salt, the structure may show the parent alone. Read-outs that look alike come from different tables or passages of the source.

Key:
[1] = test system: fibrin-induced microglia activation; experiment: Image-based assay of fibrin-induced microglia activation (HTS and dose response); format: cell-based, rat; details: for inhibition at 10 µM: Rattus norvegicus, Microglia, read-out: Fibrin % inhibition
[2] = test system: LPS-induced microglia activation; experiment: Image-based assay of LPS-induced microglia activation (HTS and dose response); format: cell-based, rat; details: for inhibition at 10 µM: Rattus norvegicus, Microglia, read-out: LPS % inhibition
[3] = test system: fibrin- and LPS-induced microglia activation; experiment: cells; format: cell-based, rat
[4] = test system: primary rat microglia; experiment: Cell toxicity (dead cells, size <150 μm2) in LPS assay
[5] = test system: primary rat microglia; experiment: Cell toxicity (dead cells, size <150 μm2) in coated fibrin (cFib) assay;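 note: share of dead cells sized under 150 µm2 at 10 µM in fibrin-stimulated microglia HTS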
[6] = primary microglia HTS, fibrin stimulation, increased cell size (>800 μm^2) as marker of activation
[7] = 48 h, primary microglia HTS, LPS stimulation, increased cell size (>800 μm^2) as marker of activation
[8] = quadrant by fibrin and LPS inhibition in HTS of 1907 compounds
[9] = primary microglia HTS, LPS stimulation, decreased size (<150 μm^2) as marker of toxicity
[10] = primary microglia HTS, fibrin stimulation, decreased size (<150 μm^2) as marker of toxicity
[11] = primary microglia HTS, fibrin stimulation, activation = cell size >800 μm2
[12] = 48 h, primary microglia HTS, LPS stimulation, activation = cell size >800 μm2
[13] = primary microglia HTS, LPS stimulation, toxicity = cell size <150 μm2
[14] = primary microglia HTS, fibrin stimulation, toxicity = cell size <150 μm2
[15] = primary HTS, 10 μM, fibrin-stimulated primary microglia
[16] = primary HTS, 10 μM, LPS-stimulated primary microglia
[17] = primary HTS, 10 μM, LPS assay, dead cells size <150 μm2
[18] = primary HTS, 10 μM, fibrin assay, dead cells size <150 μm2
[19] = primary microglia HTS, 10 μM, fibrin-stimulated, cell size >800 μm^2 as marker of activation
[20] = primary microglia HTS, 10 μM, LPS-stimulated, cell size >800 μm^2 as marker of activation
[21] = HTS of 1907 compounds, quadrant by fibrin and LPS inhibition
[22] = primary microglia HTS, 10 μM, LPS assay, cell size <150 μm^2 as marker of toxicity
[23] = primary microglia HTS, 10 μM, fibrin assay, cell size <150 μm^2 as marker of toxicity

| Molecule | inhibition at 10 µM [1, 6] [%] | inhibition at 10 µM [2, 7] [%] | Quadrant (FIG. 5b) [3, 8] | LPS % cell toxicity [4, 9] [%] | Fibrin % cell toxicity [5, 10] [%] | inhibition at 10 µM [1, 15] [%] | inhibition at 10 µM [2, 16] [%] | Quadrant (FIG. 5b) ([3]; primary HTS, 10 μM) | LPS % cell toxicity [4, 17] [%] | Fibrin % cell toxicity [5, 18] [%] | also measured |
| --- | --- | --- | --- | --- | --- | --- | --- | --- | --- | --- | --- |
| C/C(=C\C(=O)OCCCCCCCCC(=O)O)C[C@@H]1OC[C@H](C[C@@H]2O[C@H]2[C@@H](C)[C@H](C)O)[C@@H](O)[C@H]1O [Mupirocin] | 11 | 20 | Q4 | 0 | 1 |  |  |  |  |  |  |
| COC(=O)C(N)CS (stereo not shown) [Mecysteine Hydrochloride] | 20 | 22 | Q4 | 0 | 1 |  |  |  |  |  |  |
| CCCCC[C@H](O)/C=C/[C@H]1[C@H](O)CC(=O)[C@@H]1CCCCCCC(=O)O [Alprostadil] | 100 | 87 | Q2 | 3 | 9 |  |  |  |  |  |  |
| CC(COc1ccccc1)NC(C)C(O)c1ccc(O)cc1 (stereo not shown) [Isoxsuprine Hydrochloride] |  |  | Q4 |  |  |  |  |  |  |  | inhibition at 10 µM [1, 11]: -13%; inhibition at 10 µM [2, 12]: 23%; LPS % cell toxicity [4, 13]: 0%; Fibrin % cell toxicity [5, 14]: 0% |
| CO/N=C(\C(=O)N[C@@H]1C(=O)N2C(C(=O)O)=C(CSc3nnnn3C)CS[C@H]12)c1csc(N)n1 [Cefmenoxime Hydrochloride] |  |  |  |  |  | -15 | 2 | Q4 | 0 | 0 |  |
| CCN(CC)CCOCCOC(=O)C(CC)(CC)c1ccccc1 [Oxeladin] | -27 | 6 | Q4 | 0 | 1 |  |  |  |  |  |  |
| C=C[C@H]1CN2CC[C@H]1C[C@H]2[C@H](O)c1ccnc2ccccc12 [Cinchonidine] |  |  |  |  |  | 13 | 4 | Q4 | 0 | 1 |  |
| CC(=O)[C@H]1CC[C@H]2[C@@H]3C[C@H](C)C4=CC(=O)CC[C@]4(C)[C@H]3[C@@H](O)C[C@]12C [Medrysone] | 111 | 87 | Q2 | 4 | 4 |  |  |  |  |  |  |
| NS(=O)(=O)c1cc2c(cc1Cl)N=CNS2(=O)=O [Chlorothiazide] |  |  |  |  |  | 20 | 3 | Q4 | 0 | 0 |  |
| Cc1cnc(NC(=O)C2=C(O)c3ccccc3S(=O)(=O)N2C)s1 [Meloxicam] | -1 | 20 | Q4 | 0 | 1 |  |  |  |  |  |  |
| CC1(C)O[C@@H]2C[C@H]3[C@@H]4CCC5=CC(=O)C=C[C@]5(C)[C@H]4[C@@H](O)C[C@]3(C)[C@]2(C(=O)CO)O1 [Desonide] | 108 | 112 | Q2 | 5 | 17 |  |  |  |  |  |  |
| Gramicidin |  |  | Q2 | 64 | 43 |  |  |  |  |  | Fibrin % inhibition [1, 6]: 114%; LPS % inhibition ([2]; primary microglia HTS, LPS stimulation, increased cell size (>800 μm^2) as marker of activation): 118% |
| CO[C@@]1(NC(=O)CSCC#N)C(=O)N2C(C(=O)O)=C(CSc3nnnn3C)CS[C@@H]21 [Cefmetazole] |  |  |  |  |  | -50 | 8 | Q4 | 0 | 0 |  |
| C#C[C@]1(OC(C)=O)CC[C@H]2[C@@H]3CCC4=CC(=NO)CC[C@@H]4[C@H]3CC[C@@]21CC (mixture of isomers) [Norgestimate] | -5 | 12 | Q4 | 0 | 0 |  |  |  |  |  |  |
| CN1C(=O)OC(C)(C)C1=O [Trimethadione] |  |  |  |  |  |  |  |  |  |  | inhibition at 10 µM [1, 19]: -5%; inhibition at 10 µM [2, 20]: 14%; Quadrant (FIG. 5b) [3, 21]: Q4; LPS % cell toxicity [4, 22]: 0%; Fibrin % cell toxicity [5, 23]: 1% |
| CC(N)CCCC(C)(C)O (stereo not shown) [Heptaminol Hydrochloride] |  |  | Q4 |  |  |  |  |  |  |  | inhibition at 10 µM [1, 11]: -19%; inhibition at 10 µM [2, 12]: 13%; LPS % cell toxicity [4, 13]: 0%; Fibrin % cell toxicity [5, 14]: 1% |
| N#Cc1ccc2[nH]cc(CCCCN3CCN(c4ccc5oc(C(N)=O)cc5c4)CC3)c2c1 [Vilazodone] |  |  |  |  |  |  |  |  |  |  | inhibition at 10 µM [1, 19]: 1%; inhibition at 10 µM [2, 20]: 27%; Quadrant (FIG. 5b) [3, 21]: Q4; LPS % cell toxicity [4, 22]: 1%; Fibrin % cell toxicity [5, 23]: 1% |
| O=C1c2ccccc2C(=O)C1c1ccc(Br)cc1 [Bromindione] |  |  |  |  |  | 17 | 27 | Q4 | 0 | 1 |  |
| COc1ccc2[nH]c([S+]([O-])Cc3ncc(C)c(OC)c3C)nc2n1 (stereo not shown) [Tenatoprazole] |  |  |  |  |  |  |  |  |  |  | inhibition at 10 µM [1, 19]: -17%; inhibition at 10 µM [2, 20]: 9%; Quadrant (FIG. 5b) [3, 21]: Q4; LPS % cell toxicity [4, 22]: 0%; Fibrin % cell toxicity [5, 23]: 1% |
| O=C(c1ccc(F)cc1)C1CCN(CCn2c(=O)[nH]c3ccccc3c2=O)CC1 [Ketanserin Tartrate] |  |  | Q4 |  |  |  |  |  |  |  | inhibition at 10 µM [1, 11]: 17%; inhibition at 10 µM [2, 12]: 15%; LPS % cell toxicity [4, 13]: 0%; Fibrin % cell toxicity [5, 14]: 1% |
| CCCCOC(=O)c1ccc(N)cc1 [Butamben] |  |  |  |  |  | -25 | 14 | Q4 | 1 | 0 |  |
| CCC(CC)(CC(=O)Nc1cccc(/C=C/c2nc(C3CCC3)cs2)c1)C(=O)O [Cinalukast] |  |  |  |  |  | -21 | -8 | Q4 | 0 | 1 |  |
| CCCCNc1ccc(C(=O)OCCN(C)C)cc1 [Tetracaine] |  |  |  |  |  |  |  |  |  |  | inhibition at 10 µM [1, 19]: 4%; inhibition at 10 µM [2, 20]: 9%; Quadrant (FIG. 5b) [3, 21]: Q4; LPS % cell toxicity [4, 22]: 1%; Fibrin % cell toxicity [5, 23]: 1% |
